System: rat MMT model
Assay: Rat medial meniscal tear (MMT) model, histopathological scoring of knee joints
Type: in vivo
Settings: for histology of medial tibia plateau (toluidine blue), cartilage-degenerative changes: 100 ng in 50 μL saline intra-articular, two times per week from 1 week post-surgery, 10 rats per group (Figure 7A); for total joint score: versus saline (Figure 7E)
Experimental: We next tested whether peptide p[63−82] has the potency to delay the progression of trauma-induced cartilage degeneration in the rat MMT model.[34]^,[35] MMT damage was unilaterally initiated. Starting at 1 week post-MMT surgery, rats were two times per week intra-articularly injected with saline, 100 ng peptide p[63−82] in saline, or 100 ng scrambled peptide p[63−82] in saline. At 4 weeks post-MMT surgery, rats were sacrificed for histopathological scoring of the MMT knee joints. […] However, cartilage-degenerative changes were less apparent in the p[63−82] group (Figure 7A, middle panel). […] The femoral compartment also developed cartilage degeneration but less pronounced. This compartment is also more variable in its degenerative changes.[35] […] Cartilage-degeneration scores in zones 2 and 3 were generally low, as is known for the rat MMT model.[35] […] Other scored histopathological items can be found in Figure S5.
Figure 7 BMP7-derived peptide p[63−82] in rat MMT model The potency of BMP7 peptide p[63−82] to delay the progression of trauma-induced cartilage degeneration was tested in the rat MMT model. 1 week post-MMT-surgery, rats were two times per week intra-articularly injected with saline, 100 ng peptide p[63−82] in saline, or 100 ng scrambled peptide p[63−82] in saline (10 rats per group). All injection volumes were 50 μL. At 4 weeks post-MMT surgery, rats were sacrificed for histopathological scoring of the MMT knee joints. (A) Representative micrographs of toluidine blue-stained sections of medial aspects of the MMT knee joints. Conditions are indicated. (B) Medial tibia cartilage-degeneration scores. (C) Medial femur cartilage-degeneration scores. (D) Medial tibia cartilage-degeneration depth ratios. Scores and ratios are shown for zones 1, 2, and 3 individually.[35] The total scores/ratio are cumulative for zone 1, 2, and 3. (E) Total joint scores. Individual data points represent individual rats. Error bars represent mean ± SEM. Statistical differences were calculated between groups (Mann-Whitney U test), and ∗p < 0.05, ∗∗p < 0.01, and ∗∗∗p < 0.001.
The study was conducted via a contract research project at Bolder BioPATH (Boulder, CO, USA); study designs and animal usage were approved by their Institutional Animal Care and Use Committee (IACUC) prior to study initiation (IACUC protocols BBP13-029 and BBP12-004). Animal care, including room, cage, and equipment sanitation, conformed to accepted guidelines cited in the Guide for the Care and Use of Laboratory Animals (the Guide; 2011) and the applicable Bolder BioPATH standard operating procedures (SOPs). Male Lewis rats (n = 48; ∼283 g; Envigo RMS, Indianapolis, IN, USA) underwent a unilateral MMT on study day 0, as established earlier by Bendele et al.[59]^,[60] Rats were intra-articularly injected on days 7, 10, 14, 17, 21, and 24 with saline (0.9% NaCl, 50 μL/injection/animal), peptide p[63−82] (100 ng [in 50 μL saline]/injection/animal), or scrambled peptide p[63−82] (100 ng [in 50 μL saline]/injection/animal). The animals were euthanized for necropsy 28 days post-surgery.[59]^,[60] Right (surgery) knees from all animals were collected, trimmed of muscle (patella removed), and placed in 10% neutral-buffered formalin and then transferred to 70% ethanol for processing for microscopy. Operated joints were cut into two approximately equal halves in the frontal plane and embedded in paraffin. One section was cut from each knee and stained with toluidine blue. The worst-case scenario for the two halves on each slide was determined and used for evaluation. The tissues were analyzed microscopically by a veterinary pathologist as described earlier[35] (Tables S4–S13).

[1] = 100 ng intra-articular two times per week, 4 weeks (Figures 7B, 7C)
[2] = 100 ng intra-articular two times per week, 4 weeks
[3] = 100 ng intra-articular two times per week, 4 weeks (Figure 7D)

Substance | histology of medial tibia plateau (toluidine blue), cartilage-degenerative changes (4 weeks) | cartilage-degeneration scores of tibia or femur in any of the 3 zones, versus saline [1] | combined (total) tibia and femur cartilage-degeneration scores, versus saline [1] | total joint score [2] | medial femur cartilage-degeneration score, zone 1, versus saline (100 ng intra-articular two times per week, 4 weeks (Figure 7C)) | depth ratio of tibia cartilage degeneration, zone 1, versus saline [3] | total depth ratio score of tibia cartilage degeneration, versus saline [3] | cartilage-degeneration scores, p[63-82] versus scrambled p[63-82] [1] | medial tibia cartilage-degeneration score, zone 1, versus saline (100 ng intra-articular two times per week, 4 weeks, Mann-Whitney U test (Figure 7B)) | total joint score (100 ng intra-articular two times per week, 4 weeks, listed as p[62−83])
H-SEASPAMYYLNATANFYESG-OH [scrambled p[63−82], scrambled version of peptide p[63−82], reference compound] | diminished toluidine blue staining and lower chondrocyte cellularity at the lateral side of the medial tibia plateau, as well as cartilage degeneration | no statistically significant differences | Neither was there a significant difference | in between the values for saline and p[63−82] peptide but was not statistically different compared to either one of the saline or p[63−82] conditions | – | – | – | – | – | –
H-AAYYSEGESAFPLNSYMNAT-OH [p[63−82]] | less apparent | – | significantly lower | significantly lower | trend toward a statistically significant lower | significantly lower | significantly lower | did not reveal differences that were statistically significant | significantly lower | significantly improve

From publication PMC8022858, “Discovery of bone morphogenetic protein 7-derived peptide sequences that attenuate the human osteoarthritic chondrocyte phenotype” (Molecular Therapy. Methods & Clinical Development, 2021)
